{"source": "patent US5086045A", "about": "“Antitumor antibiotic” (Bristol-Myers Squibb Company, priority 1990, dated 1992)", "key": {"K. pneumoniae A20468": {"test_system": "K. pneumoniae A20468", "experiment": "Antibacterial activity (MIC), serial two-fold agar dilution", "assay_type": "cell-based", "conditions": "Klebsiella pneumoniae", "description": "(§1) Antimicrobial activity of BMY-41339 was determined for a variety of bacteria by the serial two-fold agar dilution method."}, "E. faecalis A25707": {"test_system": "E. faecalis A25707", "experiment": "Antibacterial activity (MIC), serial two-fold agar dilution", "assay_type": "cell-based", "conditions": "Enterococcus faecalis", "description": "as §1"}, "E. faecalis A25708": {"test_system": "E. faecalis A25708", "experiment": "Antibacterial activity (MIC), serial two-fold agar dilution", "assay_type": "cell-based", "conditions": "Enterococcus faecalis", "description": "as §1"}, "E. coli A9751": {"test_system": "E. coli A9751", "experiment": "Antibacterial activity (MIC), serial two-fold agar dilution", "assay_type": "cell-based", "conditions": "Escherichia coli", "description": "as §1"}, "P. aeruginosa A21508": {"test_system": "P. aeruginosa A21508", "experiment": "Antibacterial activity (MIC), serial two-fold agar dilution", "assay_type": "cell-based", "conditions": "Pseudomonas aeruginosa", "description": "as §1"}, "K. pneumoniae A9664": {"test_system": "K. pneumoniae A9664", "experiment": "Antibacterial activity (MIC), serial two-fold agar dilution", "assay_type": "cell-based", "conditions": "Klebsiella pneumoniae", "description": "as §1"}, "S. aureus A20698": {"test_system": "S. aureus A20698", "experiment": "Antibacterial activity (MIC), serial two-fold agar dilution", "assay_type": "cell-based", "conditions": "Staphylococcus aureus", "description": "as §1"}, "E. coli A20697": {"test_system": "E. coli A20697", "experiment": "Antibacterial activity (MIC), serial two-fold agar dilution", "assay_type": "cell-based", "conditions": "Escherichia coli", "description": "as §1"}, "P388 leukemia": {"test_system": "P388 leukemia", "experiment": "In vivo antitumor activity, P388 leukemia implanted ip, drug ip", "set-up": "species or system mouse", "description": "The in vivo antitumor activity of BMY-41339 was determined in the standard P388 mouse leukemia model. A summary of the experiments performed using BMY-41339 is provided below.\nDBA/2 and (Balb/c × DBA/2)F1 (CDF1) hybrid mice were purchased from Charles River Breeding Co. (Wilmington, MA). They were provided food and water ad libitum.\nThe P388 murine ascites leukemia was maintained by weekly in vivo passage in DBA/2 mice.\nEsperamicin A1 and BMY-41339 were dissolved in ethanol. Further dilutions were made with 0.9% NaCl (saline) until the ethanol concentration (v/v) was 10%. All administrations were made, therefore, in a 10% ethanol in saline vehicle. For ip injections, the concentration of compound was adjusted according to the average initial body weight of each group of mice to be injected such that the desired dose would be contained in a 0.5 ml injection volume. The same procedure was used for iv compound administration except the injection volume was 0.2 ml.\nAntitumor experiments were initiated by implanting […] P388 leukemia cells either ip or iv into CDF1 mice. BMY-41339 and esperamicin A1 (included as a positive reference compound), were injected either ip in mice implanted ip with P388, or iv in mice implanted iv with P388 on Day 2 post-implant only Eight different dose levels of BMY-41339, at two-fold increments, were evaluated in each of the two experiments performed.\nA % T/C value of ≥ 125 was considered indicative of activity in these models."}, "[1]": {"conditions": "Exp. 8102, ip, 0.025 mg/kg/dose"}, "[2]": {"conditions": "Exp. 8109, ip, 0.025 mg/kg/dose"}}, "data": [{"smiles": "C=C(OC)C(=O)Nc1cc(OC)c(OC)cc1C(=O)OC1CC(OC2C(=O)C(NC(=O)OC)=C3C(=CCSSSSC)C2(O)C#CC=CC#CC3OC2OC(C)C(NOC3CC(O)C(SC)C(C)O3)C(O)C2OC2CC(OC)C(NC(C)C)CO2)OC(C)C1O", "note": "(stereo not drawn) [BMY-41339]", "values": [{"measurement": "MIC", "setting": "K. pneumoniae A20468", "value": 1, "unit": "µg/mL"}, {"measurement": "MIC", "setting": "E. faecalis A25707", "value": 0.002, "unit": "µg/mL"}, {"measurement": "MIC", "setting": "E. faecalis A25708", "value": 0.002, "unit": "µg/mL"}, {"measurement": "MIC", "setting": "E. coli A9751", "value": 0.016, "unit": "µg/mL"}, {"measurement": "MIC", "setting": "P. aeruginosa A21508", "value": 0.25, "unit": "µg/mL"}, {"measurement": "MIC", "setting": "K. pneumoniae A9664", "value": 1, "unit": "µg/mL"}, {"measurement": "MIC", "setting": "S. aureus A20698", "value": 0.001, "unit": "µg/mL"}, {"measurement": "MIC", "setting": "E. coli A20697", "value": 0.25, "unit": "µg/mL"}, {"measurement": "T/C", "setting": "P388 leukemia; Exp. 8102, ip, 1.6 μg/kg", "value": 145, "unit": "%"}, {"measurement": "T/C", "setting": "P388 leukemia; Exp. 8102, ip, 3.2 μg/kg (highest dose tested)", "value": 140, "unit": "%"}, {"measurement": "% T/C", "setting": "P388 leukemia; [1]", "value": 110, "unit": "%"}, {"measurement": "Avg. wt. change on day 6", "setting": "P388 leukemia; [1]", "value": 0.8, "unit": "grams"}, {"measurement": "Survivors on Day 5", "setting": "P388 leukemia; [1]", "value": "6/6"}, {"measurement": "% T/C", "setting": "P388 leukemia; Exp. 8102, ip, 0.05 mg/kg/dose", "value": 110, "unit": "%"}, {"measurement": "Avg. wt. change on day 6", "setting": "P388 leukemia; Exp. 8102, ip, 0.05 mg/kg/dose", "value": 1.3, "unit": "grams"}, {"measurement": "Survivors on Day 5", "setting": "P388 leukemia; Exp. 8102, ip, 0.05 mg/kg/dose", "value": "6/6"}, {"measurement": "% T/C", "setting": "P388 leukemia; Exp. 8102, ip, 0.1 mg/kg/dose", "value": 120, "unit": "%"}, {"measurement": "Avg. wt. change on day 6", "setting": "P388 leukemia; Exp. 8102, ip, 0.1 mg/kg/dose", "value": 0.7, "unit": "grams"}, {"measurement": "Survivors on Day 5", "setting": "P388 leukemia; Exp. 8102, ip, 0.1 mg/kg/dose", "value": "6/6"}, {"measurement": "% T/C", "setting": "P388 leukemia; Exp. 8102, ip, 0.2 mg/kg/dose", "value": 140, "unit": "%"}, {"measurement": "Avg. wt. change on day 6", "setting": "P388 leukemia; Exp. 8102, ip, 0.2 mg/kg/dose", "value": 0.6, "unit": "grams"}, {"measurement": "Survivors on Day 5", "setting": "P388 leukemia; Exp. 8102, ip, 0.2 mg/kg/dose", "value": "6/6"}, {"measurement": "% T/C", "setting": "P388 leukemia; Exp. 8102, ip, 0.4 mg/kg/dose", "value": 135, "unit": "%"}, {"measurement": "Avg. wt. change on day 6", "setting": "P388 leukemia; Exp. 8102, ip, 0.4 mg/kg/dose", "value": 0.6, "unit": "grams"}, {"measurement": "Survivors on Day 5", "setting": "P388 leukemia; Exp. 8102, ip, 0.4 mg/kg/dose", "value": "6/6"}, {"measurement": "% T/C", "setting": "P388 leukemia; Exp. 8102, ip, 0.8 mg/kg/dose", "value": 140, "unit": "%"}, {"measurement": "Avg. wt. change on day 6", "setting": "P388 leukemia; Exp. 8102, ip, 0.8 mg/kg/dose", "value": 0.4, "unit": "grams"}, {"measurement": "Survivors on Day 5", "setting": "P388 leukemia; Exp. 8102, ip, 0.8 mg/kg/dose", "value": "6/6"}, {"measurement": "% T/C", "setting": "P388 leukemia; Exp. 8102, ip, 1.6 mg/kg/dose", "value": 145, "unit": "%"}, {"measurement": "Avg. wt. change on day 6", "setting": "P388 leukemia; Exp. 8102, ip, 1.6 mg/kg/dose", "value": -0.1, "unit": "grams"}, {"measurement": "Survivors on Day 5", "setting": "P388 leukemia; Exp. 8102, ip, 1.6 mg/kg/dose", "value": "6/6"}, {"measurement": "% T/C", "setting": "P388 leukemia; Exp. 8102, ip, 3.2 mg/kg/dose", "value": 140, "unit": "%"}, {"measurement": "Avg. wt. change on day 6", "setting": "P388 leukemia; Exp. 8102, ip, 3.2 mg/kg/dose", "value": 0.7, "unit": "grams"}, {"measurement": "Survivors on Day 5", "setting": "P388 leukemia; Exp. 8102, ip, 3.2 mg/kg/dose", "value": "6/6"}, {"measurement": "% T/C", "setting": "P388 leukemia; Exp. 8102, ip, single injections above 0.1 μg/kg, Day 2 only", "value": "≥ 135", "unit": "%"}, {"measurement": "overt drug-associated toxicity (e.g. excessive body weight loss, early deaths)", "setting": "P388 leukemia; Exp. 8102, ip, up to 3.2 μg/kg", "value": "no obvious sign of overt drug-associated toxicity"}, {"measurement": "% T/C", "setting": "P388 leukemia; [2]", "value": 110, "unit": "%"}, {"measurement": "Avg. wt. change on day 6", "setting": "P388 leukemia; [2]", "value": 0.8, "unit": "grams"}, {"measurement": "Survivors on Day 5", "setting": "P388 leukemia; [2]", "value": "6/6"}, {"measurement": "T/C", "setting": "P388 leukemia; Exp. 8109, ip, 32 μg/kg (highest dose tested)", "value": 171, "unit": "%"}, {"measurement": "% T/C", "setting": "P388 leukemia; Exp. 8109, ip, 0.05 mg/kg/dose", "value": 110, "unit": "%"}, {"measurement": "Avg. wt. change on day 6", "setting": "P388 leukemia; Exp. 8109, ip, 0.05 mg/kg/dose", "value": 1.3, "unit": "grams"}, {"measurement": "Survivors on Day 5", "setting": "P388 leukemia; Exp. 8109, ip, 0.05 mg/kg/dose", "value": "6/6"}, {"measurement": "% T/C", "setting": "P388 leukemia; Exp. 8109, ip, 0.1 mg/kg/dose", "value": 120, "unit": "%"}, {"measurement": "Avg. wt. change on day 6", "setting": "P388 leukemia; Exp. 8109, ip, 0.1 mg/kg/dose", "value": 0.7, "unit": "grams"}, {"measurement": "Survivors on Day 5", "setting": "P388 leukemia; Exp. 8109, ip, 0.1 mg/kg/dose", "value": "6/6"}, {"measurement": "% T/C", "setting": "P388 leukemia; Exp. 8109, ip, 0.2 mg/kg/dose", "value": 140, "unit": "%"}, {"measurement": "Avg. wt. change on day 6", "setting": "P388 leukemia; Exp. 8109, ip, 0.2 mg/kg/dose", "value": 0.6, "unit": "grams"}, {"measurement": "Survivors on Day 5", "setting": "P388 leukemia; Exp. 8109, ip, 0.2 mg/kg/dose", "value": "6/6"}, {"measurement": "% T/C", "setting": "P388 leukemia; Exp. 8109, ip, 0.4 mg/kg/dose", "value": 135, "unit": "%"}, {"measurement": "Avg. wt. change on day 6", "setting": "P388 leukemia; Exp. 8109, ip, 0.4 mg/kg/dose", "value": 0.6, "unit": "grams"}, {"measurement": "Survivors on Day 5", "setting": "P388 leukemia; Exp. 8109, ip, 0.4 mg/kg/dose", "value": "6/6"}, {"measurement": "% T/C", "setting": "P388 leukemia; Exp. 8109, ip, 0.8 mg/kg/dose", "value": 140, "unit": "%"}, {"measurement": "Avg. wt. change on day 6", "setting": "P388 leukemia; Exp. 8109, ip, 0.8 mg/kg/dose", "value": 0.4, "unit": "grams"}, {"measurement": "Survivors on Day 5", "setting": "P388 leukemia; Exp. 8109, ip, 0.8 mg/kg/dose", "value": "6/6"}, {"measurement": "% T/C", "setting": "P388 leukemia; Exp. 8109, ip, 1.6 mg/kg/dose", "value": 145, "unit": "%"}, {"measurement": "Avg. wt. change on day 6", "setting": "P388 leukemia; Exp. 8109, ip, 1.6 mg/kg/dose", "value": -0.1, "unit": "grams"}, {"measurement": "Survivors on Day 5", "setting": "P388 leukemia; Exp. 8109, ip, 1.6 mg/kg/dose", "value": "6/6"}, {"measurement": "% T/C", "setting": "P388 leukemia; Exp. 8109, ip, 3.2 mg/kg/dose", "value": 140, "unit": "%"}, {"measurement": "Avg. wt. change on day 6", "setting": "P388 leukemia; Exp. 8109, ip, 3.2 mg/kg/dose", "value": 0.7, "unit": "grams"}, {"measurement": "Survivors on Day 5", "setting": "P388 leukemia; Exp. 8109, ip, 3.2 mg/kg/dose", "value": "6/6"}, {"measurement": "increases in lifespan", "setting": "P388 leukemia; Exp. 8109, ip, 0.5 -32 μg/kg", "value": "active increases"}, {"measurement": "activity against P388 leukemia", "setting": "P388 leukemia; conclusion, confirmed experimental results", "value": "active against P388 leukemia"}]}]}
